Molecules are shown by their SMILES.

Holding throughout (type): binding
In experiment [1] the target is T1, cytochrome c (cyt c) (Saccharomyces cerevisiae, UniProt P00044).
T1 construct: gene CYC1
In words: ITC; X-ray cocrystal structure; NMR; SECMALS. (In ITC the heat of successive injections is recorded.)

Experiment [2] deals with T1, cytochrome c (cyt c). As to the kind of experiment: ITC; X-ray cocrystal structure; NMR. Conditions: read-out: apparent dissociation constant; cited from earlier work.
The target of experiment [3] is Penicillium antifungal protein (PAF) (Penicillium chrysogenum, UniProt Q01701). As to the kind of experiment: ITC; X-ray cocrystal structure; NMR.
Penicillium antifungal protein (PAF), sequence (Q01701 38-92 limits assumed): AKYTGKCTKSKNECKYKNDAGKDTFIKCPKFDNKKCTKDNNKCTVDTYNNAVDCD
Experiment [4] addresses T1, cytochrome c (cyt c). As to the kind of experiment: ITC; X-ray cocrystal structure. Conditions: read-out: apparent dissociation constant; cited from earlier work.

T1 sequence (P00044 2-109): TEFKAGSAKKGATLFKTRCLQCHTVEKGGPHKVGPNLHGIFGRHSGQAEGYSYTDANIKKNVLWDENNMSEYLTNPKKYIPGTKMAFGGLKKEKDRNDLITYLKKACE

As to `O=P(O)(O)c1cc2c(O)c(c1)Cc1cc(P(=O)(O)O)cc(c1O)Cc1cc(P(=O)(O)O)cc(c1O)Cc1cc(P(=O)(O)O)cc(c1O)Cc1cc(P(=O)(O)O)cc(c1O)Cc1cc(P(=O)(O)O)cc(c1O)C2` [phosphonato-calix[6]arene], the binding affinity result in experiment [1] is listed as “the ITC data indicated a binding affinity in the low micromolar range”.

For the molecule `O=S(=O)(O)c1cc2c(O)c(c1)Cc1cc(S(=O)(=O)O)cc(c1O)Cc1cc(S(=O)(=O)O)cc(c1O)Cc1cc(S(=O)(=O)O)cc(c1O)C2` [sulfonato-calix[4]arene], the Kd in experiment [2] was 30 µM. Besides, the binding affinity result in experiment [3] is “Micromolar binding affinities were determined by ITC”.

As to `O=S(=O)(O)c1cc2c(O)c(c1)Cc1cc(S(=O)(=O)O)cc(c1O)Cc1cc(S(=O)(=O)O)cc(c1O)Cc1cc(Br)cc(c1O)C2` [bromo-sulfonato-calix[4]arene], the Kd in experiment [4] is 20 µM.

Consider `O=S(=O)(O)c1cc2c(O)c(c1)Cc1cc(S(=O)(=O)O)cc(c1O)Cc1cc(S(=O)(=O)O)cc(c1O)Cc1cc(S(=O)(=O)O)cc(c1O)Cc1cc(S(=O)(=O)O)cc(c1O)Cc1cc(S(=O)(=O)O)cc(c1O)C2` [sulfonato-calix[6]arene], for which the binding affinity result in experiment [3] is “Micromolar binding affinities were determined by ITC”.

The values above are taken from PMC9350911, “Protein–Calixarene Complexation: From Recognition to Assembly” (Accounts of Chemical Research, 2022).
